Measured values published in patent US20240252488A1 (KOREA RESEARCH INSTITUTE OF CHEMICAL TECHNOLOGY, priority 2020, published 2024).

Assays:
[1] = tested on: FADD−/− Jurkat cells; experiment: Necroptosis inhibition assay, TNF-α-induced necroptosis (CellTiter-Glo 2.0); type: cell-based, human; details: TNF-α 15 ng/mL; for Necroptosis inhibition assay (Rescue %) 1 μM: compound 1 μM; for Necroptosis inhibition assay (Rescue %) 10 μM: compound 10 μM
How it was run: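 Tested at three fixed concentrations (0.1, 1, 10 μM final) with a 30-minute room-temperature preincubation ahead of 15 ng/mL TNF-α challenge lasting 20 to 24 hours. Inhibition rate and cytotoxicity derive from ATP luminescence.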

[2] = target: T1, MLKL (Homo sapiens, UniProt Q8NB16); experiment: MLKL degradation assay in HepG2 cell line (western blot); type: cell-based; parameters: endogenous in cells; host or cells: HepG2 or HaCaT; details: cell line not given; for Degradation assay (Degradation %) 1 μM: compound 1 μM; for Degradation assay (Degradation %) 10 μM: compound 10 μM
T1 sequence (Q8NB16 1-471): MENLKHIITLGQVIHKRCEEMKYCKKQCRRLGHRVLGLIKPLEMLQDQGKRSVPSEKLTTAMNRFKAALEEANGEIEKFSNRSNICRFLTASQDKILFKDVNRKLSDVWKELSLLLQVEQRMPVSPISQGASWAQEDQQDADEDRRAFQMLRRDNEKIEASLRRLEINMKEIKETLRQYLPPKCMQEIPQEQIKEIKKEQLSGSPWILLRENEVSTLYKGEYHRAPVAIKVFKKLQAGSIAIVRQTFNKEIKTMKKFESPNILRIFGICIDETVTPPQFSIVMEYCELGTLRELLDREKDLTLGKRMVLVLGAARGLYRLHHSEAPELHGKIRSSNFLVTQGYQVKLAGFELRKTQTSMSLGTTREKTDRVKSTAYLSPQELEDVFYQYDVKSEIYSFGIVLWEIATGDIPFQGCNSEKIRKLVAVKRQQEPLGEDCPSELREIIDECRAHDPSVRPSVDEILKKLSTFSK
How it was run: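 Degradation is judged from MLKL band intensity on immunoblots of HepG2 lysates taken after 20-24 hours of compound at final 1 or 10 μM.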

[3] = target: T1, MLKL; experiment: Measurement of binding affinity with MLKL receptor (competitive binding assay, Kd); parameters: made in house; host or cells: HEK 293 cell line (T7 phage in E. coli BL21-derived host is also described)
How it was run: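 Kd comes from a bead-based competition format: compound-dependent loss of DNA-tagged, HEK 293-expressed MLKL capture, measured as eluate kinase by qPCR. Final DMSO is 0.9%.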

SMILES	Degradation assay (Degradation %) 1 μM [2] [%]	Degradation assay (Degradation %) 10 μM [2] [%]	Kd [3] [nM]	Necroptosis inhibition assay (Rescue %) 1 μM [1] [%]	Necroptosis inhibition assay (Rescue %) 10 μM [1] [%]
Nc1ncc(-c2cnn(C3CCN(C(=O)c4cn(C5CCN(C(=O)C6CCN(c7cccc8c7C(=O)N(C7CCC(=O)NC7=O)C8=O)CC6)CC5)cn4)CC3)c2)nc1C(=O)O[C@@H](C(=O)Nc1ccc(F)cc1)c1ccccc1 (stereo partly drawn) [TDH-362, (R)-2-((4-fluorophenyl)amino)-2-oxo-1-phenylethyl 3-amino-6-(1-(1-(1-(1-(1-(2-(2,6-dioxopiperidin-3-yl)-1,3-dioxoisoindolin-4-yl)piperidine-4-carbonyl)piperidin-4-yl)-1H-imidazole-4-carbonyl)piperidin-4-yl)-1H-pyrazol-4-yl)pyrazine-2-carboxylate]	69.87	69.78	5.5	17.89	16.12
Nc1ncc(-c2cnn(C3CCN(C(=O)c4cn(C5CCN(C(=O)C6CCN(c7ccc8c(c7)C(=O)N(C7CCC(=O)NC7=O)C8=O)CC6)CC5)cn4)CC3)c2)nc1C(=O)O[C@@H](C(=O)Nc1ccc(F)cc1)c1ccccc1 (stereo partly drawn) [TDH-363, (R)-2-((4-fluorophenyl)amino)-2-oxo-1-phenylethyl 3-amino-6-(1-(1-(1-(1-(1-(2-(2,6-dioxopiperidin-3-yl)-1,3-dioxoisoindolin-5-yl)piperidine-4-carbonyl)piperidin-4-yl)-1H-imidazole-4-carbonyl)piperidin-4-yl)-1H-pyrazol-4-yl)pyrazine-2-carboxylate]	76.83	69.84	2.9	32.65	27.11
Nc1ncc(-c2cnn(C3CCN(C(=O)c4cn(C5CCN(c6cccc7c6C(=O)N(C6CCC(=O)NC6=O)C7=O)CC5)cn4)CC3)c2)nc1C(=O)O[C@@H](C(=O)Nc1ccc(F)cc1)c1ccccc1 (stereo partly drawn) [TDH-364, (R)-2-((4-fluorophenyl)amino)-2-oxo-1-phenylethyl 3-amino-6-(1-(1-(1-(1-(2-(2,6-dioxopiperidin-3-yl)-1,3-dioxoisoindolin-4-yl)piperidin-4-yl)-1H-imidazole-4-carbonyl)piperidin-4-yl)-1H-pyrazol-4-yl)pyrazine-2-carboxylate]	72.07	65.89	5.3	22.41	17.66
Nc1ncc(-c2cnn(C3CCN(C(=O)c4cn(C5CCN(c6ccc7c(c6)C(=O)N(C6CCC(=O)NC6=O)C7=O)CC5)cn4)CC3)c2)nc1C(=O)O[C@@H](C(=O)Nc1ccc(F)cc1)c1ccccc1 (stereo partly drawn) [TDH-365, (R)-2-((4-fluorophenyl)amino)-2-oxo-1-phenylethyl 3-amino-6-(1-(1-(1-(1-(2-(2,6-dioxopiperidin-3-yl)-1,3-dioxoisoindolin-5-yl)piperidin-4-yl)-1H-imidazole-4-carbonyl)piperidin-4-yl)-1H-pyrazol-4-yl)pyrazine-2-carboxylate]	72.59	82.21	3.9	19.16	16.51
Nc1ncc(-c2cnn(C3CCN(CCC4CCN(C(=O)CC5CCN(c6cccc7c6C(=O)N(C6CCC(=O)NC6=O)C7=O)CC5)CC4)CC3)c2)nc1C(=O)O[C@@H](C(=O)Nc1ccc(F)cc1)c1ccccc1 (stereo partly drawn) [TDH-366, (R)-2-((4-fluorophenyl)amino)-2-oxo-1-phenylethyl 3-amino-6-(1-(1-(2-(1-(2-(1-(2-(2,6-dioxopiperidin-3-yl)-1,3-dioxoisoindolin-4-yl)piperidin-4-yl)acetyl)piperidin-4-yl)ethyl)piperidin-4-yl)-1H-pyrazol-4-yl)pyrazine-2-carboxylate]	87.27	80.23	1.2	45.56	22.39
Nc1ncc(-c2cnn(C3CCN(CCCN4CCN(C(=O)CC5CCN(c6ccc7c(c6)C(=O)N(C6CCC(=O)NC6=O)C7=O)CC5)CC4)CC3)c2)nc1C(=O)O[C@@H](C(=O)Nc1ccc(F)cc1)c1ccccc1 (stereo partly drawn) [TDH-369, (R)-2-((4-fluorophenyl)amino)-2-oxo-1-phenylethyl 3-amino-6-(1-(1-(3-(4-(2-(1-(2-(2,6-dioxopiperidin-3-yl)-1,3-dioxoisoindolin-5-yl)piperidin-4-yl)acetyl)piperazin-1-yl)propyl)piperidin-4-yl)-1H-pyrazol-4-yl)pyrazine-2-carboxylate]	73.33	94	1.1	48.04	22.49

The next molecules have a lower Kd [3] than those just listed; values first:

Degradation assay (Degradation %) 1 μM [2] [%]	Degradation assay (Degradation %) 10 μM [2] [%]	Kd [3] [nM]	SMILES	Necroptosis inhibition assay (Rescue %) 1 μM [1] [%]	Necroptosis inhibition assay (Rescue %) 10 μM [1] [%]
84.28	80.64	0.82	Nc1ncc(-c2cnn(C3CCN(CCC4CCN(C(=O)CC5CCN(c6ccc7c(c6)C(=O)N(C6CCC(=O)NC6=O)C7=O)CC5)CC4)CC3)c2)nc1C(=O)O[C@@H](C(=O)Nc1ccc(F)cc1)c1ccccc1 (stereo partly drawn) [TDH-367, (R)-2-((4-fluorophenyl)amino)-2-oxo-1-phenylethyl 3-amino-6-(1-(1-(2-(1-(2-(1-(2-(2,6-dioxopiperidin-3-yl)-1,3-dioxoisoindolin-5-yl)piperidin-4-yl)acetyl)piperidin-4-yl)ethyl)piperidin-4-yl)-1H-pyrazol-4-yl)pyrazine-2-carboxylate]	36.86	21.34
86.09	88.6	1	Nc1ncc(-c2cnn(C3CCN(CCCN4CCN(C(=O)CC5CCN(c6cccc7c6C(=O)N(C6CCC(=O)NC6=O)C7=O)CC5)CC4)CC3)c2)nc1C(=O)O[C@@H](C(=O)Nc1ccc(F)cc1)c1ccccc1 (stereo partly drawn) [TDH-368, (R)-2-((4-fluorophenyl)amino)-2-oxo-1-phenylethyl 3-amino-6-(1-(1-(3-(4-(2-(1-(2-(2,6-dioxopiperidin-3-yl)-1,3-dioxoisoindolin-4-yl)piperidin-4-yl)acetyl)piperazin-1-yl)propyl)piperidin-4-yl)-1H-pyrazol-4-yl)pyrazine-2-carboxylate]	40.51	5.97
91.76	85.83	0.28	Nc1ncc(-c2cnn(C3CCN(CCCN4CCN(C(=O)COc5ccc6nnn(C7CCC(=O)NC7=O)c(=O)c6c5)CC4)CC3)c2)nc1C(=O)O[C@@H](C(=O)Nc1ccc(F)cc1)c1ccccc1 (stereo partly drawn) [TDH-370, (R)-2-((4-fluorophenyl)amino)-2-oxo-1-phenylethyl 3-amino-6-(1-(1-(3-(4-(2-((3-(2,6-dioxopiperidin-3-yl)-4-oxo-3,4-dihydrobenzo[d][1,2,3]triazin-6-yl)oxy)acetyl)piperazin-1-yl)propyl)piperidin-4-yl)-1H-pyrazol-4-yl)pyrazine-2-carboxylate]	52.00	24.38
